Data on 5 compounds can be found in US12480948B2, “Ratiometric fluorescent probe for detecting aminopeptidase N, and preparation method and use thereof” (Jilin University, priority 2022, dated 2025).

One data set concerns APN in HepG2 cells. Kind of data set: APAP-induced hepatotoxicity and hepatoprotective drugs in HepG2 cells, imaged with NB-APN. Conditions: for effect on the red fluorescence of HepG2 cells: drug 300 μM + APAP 1,000 μM + NB-APN 5 μM. It is filed as cell-based, human. From the text: It has been reported that the excessive use of antipyretic analgesic acetaminophen (APAP) can cause drug-induced liver injury, during which process an APN concentration increases. The present disclosure also evaluates the performance of NB-APN in monitoring APN changes during APAP-induced acute hepatotoxicity and a drug treatment thereof. The NB-APN was used to evaluate the production of APN in APAP-stimulated cells. […] Furthermore, the NB-APN was used to study a relationship between the hepatotoxicity therapy and the APN level in living cells. Four drugs (NAC, GSH, TIO, and Glu) were investigated as anti-DILI hepatoprotective agents. […] This may be because the intake of GSH helps to improve the detoxification ability of the liver and reduce the damage of APAP to the liver. In addition, the western blot result was also consistent with the result of fluorescent imaging.

For the next data set, the target named is T1, APN in liver (Mus musculus, UniProt P97449).
T1 construct: from tissue; host or cells: liver of nude mice, in vivo
T1 sequence (P97449 1-966): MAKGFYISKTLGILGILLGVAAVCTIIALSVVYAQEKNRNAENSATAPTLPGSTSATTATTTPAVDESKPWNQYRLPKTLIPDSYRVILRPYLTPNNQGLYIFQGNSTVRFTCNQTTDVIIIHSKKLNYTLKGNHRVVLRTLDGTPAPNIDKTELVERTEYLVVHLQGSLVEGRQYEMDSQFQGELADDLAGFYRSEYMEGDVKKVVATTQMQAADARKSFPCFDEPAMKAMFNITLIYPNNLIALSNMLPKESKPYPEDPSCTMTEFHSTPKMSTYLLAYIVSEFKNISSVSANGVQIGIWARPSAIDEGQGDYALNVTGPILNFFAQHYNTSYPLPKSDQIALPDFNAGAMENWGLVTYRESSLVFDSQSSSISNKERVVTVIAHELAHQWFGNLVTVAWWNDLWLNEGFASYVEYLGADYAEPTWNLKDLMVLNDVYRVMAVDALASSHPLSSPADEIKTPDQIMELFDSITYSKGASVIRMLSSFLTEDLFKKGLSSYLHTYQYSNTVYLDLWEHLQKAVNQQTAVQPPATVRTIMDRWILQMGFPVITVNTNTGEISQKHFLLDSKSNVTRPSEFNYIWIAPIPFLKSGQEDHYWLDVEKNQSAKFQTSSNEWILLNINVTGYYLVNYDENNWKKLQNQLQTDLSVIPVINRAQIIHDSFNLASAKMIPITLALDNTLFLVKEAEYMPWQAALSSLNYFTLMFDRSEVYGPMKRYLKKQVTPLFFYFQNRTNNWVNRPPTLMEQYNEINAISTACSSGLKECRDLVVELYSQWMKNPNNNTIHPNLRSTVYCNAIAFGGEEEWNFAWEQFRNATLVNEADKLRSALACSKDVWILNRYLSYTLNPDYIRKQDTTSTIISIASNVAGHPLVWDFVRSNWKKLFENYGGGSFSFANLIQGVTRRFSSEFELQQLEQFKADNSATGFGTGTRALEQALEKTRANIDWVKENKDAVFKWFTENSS
Briefly: In vivo imaging of APN activity in nude mice with DILI. Also on record: species or system nude mouse. Conditions: 300 mg/kg APAP intraperitoneal, 12 h after NB-APN tail vein injection. How it is done: The NB-APN was used to image the activity of APN in nude mice with DILI. Nude mice were intraperitoneally pre-injected with pH 7.4 PBS (control), and then injected with NB-APN through the tail vein. The background fluorescence signal of the nude mice was extremely low 6 h and 12 h after the NB-APN injection. […] In addition, the nude mouse with DILI was sacrificed, and the main organs (heart, liver, spleen, lung, and kidney) and the tumor were collected for imaging after 3 h of NB-APN pretreatment.

The target in a further data set is APN (Homo sapiens, UniProt P15144). Kind of data set: Inhibitor experiments with bestatin in the NB-APN + APN system. The following applies: bestatin 1 μM and 10 μM, APN 25 ng/mL, NB-APN 10 μM, 37° C., pH 7.4, 20 min. It is filed as biochemical. How it is done:
Inhibitor experiments: a: NB-APN (10 μM); b: system (a)+APN (25 ng/mL); c: system (b)+bestatin (1 μM); and d: system (b)+bestatin (10 μM).
The influence of different concentrations of bestatin on the fluorescence ratio I675/I610 of 10 μM NB-APN (green) or 10 μM NB (red) was investigated, with λex=560 nm, 37° C., pH 7.4, 20 min.

For data set [1], the target named is T2, APN in liver cancer cells HepG2 (Homo sapiens, UniProt P15144).
T2 construct: after acting on HepG2 cells, indicating the existence of intrinsic APN; endogenous in cells; host or cells: HepG2
Briefly: Confocal ratiometric cell imaging of APN, HepG2. It is filed as cell-based. Conditions: HepG2, bestatin 100 μM pre-treatment 1 h, NB-APN 5 μM 30 min. How it is done:
(§1) The probe NB-APN was used for the imaging analysis of APN in liver cancer cells HepG2 and normal hepatocytes LO2. A confocal fluorescence microscope was adopted, and an excitation light source with a wavelength of 559 nm was adopted. The light emitted from a yellow channel (580 nm to 620 nm) and a red channel (660 nm to 700 nm) was collected. The HepG2 cells and LO2 cells were each pre-treated with bestatin (100 μM) for 1 h and then incubated with NB-APN (5 μM) for 30 min.

Data set [2] has as its target T3, APN in normal hepatocytes LO2 (Homo sapiens, UniProt P15144).
T3 construct: endogenous in cells; host or cells: LO2
Briefly: Confocal ratiometric cell imaging of APN, LO2. The format is cell-based. Conditions: LO2, bestatin 100 μM pre-treatment 1 h, NB-APN 5 μM 30 min. How it is done: as §1

Data set [3] deals with T4, APN in transplanted tumor (Homo sapiens, UniProt P15144).
T4 construct: from tissue; host or cells: HepG2 xenograft tumour in nude mouse
Briefly: In vivo fluorescent imaging of HepG2 tumor-transplanted nude mice. Also on record: species or system nude mouse. The following applies: 50 μL bestatin (100 μM) pre-injected 1 h before NB-APN. How it is done: Transplanted tumors from two nude mice were respectively pre-injected with 50 μL of PBS (control) and bestatin (100 μM), and 1 h later, 50 μL of NB-APN (50 μM) was intratumorally injected. Imaging was conducted at different time points (0 h, 0.25 h, 0.5 h, 1.0 h, 2.0 h, and 4.0 h) after the NB-APN injection.
The intratumoral injection was adopted to study tumor imaging in a nude mouse liver cancer model under the red luminescence channel, and results are shown in FIG. 12. The fluorescence background of the nude mouse before the probe injection was very low. […] It can be considered accordingly that the fluorescence signal in a tumor is caused by the enzymatic activity of APN and thus the probe NB-APN can detect APN at a living organism level.

T4 sequence (P15144 whole entry): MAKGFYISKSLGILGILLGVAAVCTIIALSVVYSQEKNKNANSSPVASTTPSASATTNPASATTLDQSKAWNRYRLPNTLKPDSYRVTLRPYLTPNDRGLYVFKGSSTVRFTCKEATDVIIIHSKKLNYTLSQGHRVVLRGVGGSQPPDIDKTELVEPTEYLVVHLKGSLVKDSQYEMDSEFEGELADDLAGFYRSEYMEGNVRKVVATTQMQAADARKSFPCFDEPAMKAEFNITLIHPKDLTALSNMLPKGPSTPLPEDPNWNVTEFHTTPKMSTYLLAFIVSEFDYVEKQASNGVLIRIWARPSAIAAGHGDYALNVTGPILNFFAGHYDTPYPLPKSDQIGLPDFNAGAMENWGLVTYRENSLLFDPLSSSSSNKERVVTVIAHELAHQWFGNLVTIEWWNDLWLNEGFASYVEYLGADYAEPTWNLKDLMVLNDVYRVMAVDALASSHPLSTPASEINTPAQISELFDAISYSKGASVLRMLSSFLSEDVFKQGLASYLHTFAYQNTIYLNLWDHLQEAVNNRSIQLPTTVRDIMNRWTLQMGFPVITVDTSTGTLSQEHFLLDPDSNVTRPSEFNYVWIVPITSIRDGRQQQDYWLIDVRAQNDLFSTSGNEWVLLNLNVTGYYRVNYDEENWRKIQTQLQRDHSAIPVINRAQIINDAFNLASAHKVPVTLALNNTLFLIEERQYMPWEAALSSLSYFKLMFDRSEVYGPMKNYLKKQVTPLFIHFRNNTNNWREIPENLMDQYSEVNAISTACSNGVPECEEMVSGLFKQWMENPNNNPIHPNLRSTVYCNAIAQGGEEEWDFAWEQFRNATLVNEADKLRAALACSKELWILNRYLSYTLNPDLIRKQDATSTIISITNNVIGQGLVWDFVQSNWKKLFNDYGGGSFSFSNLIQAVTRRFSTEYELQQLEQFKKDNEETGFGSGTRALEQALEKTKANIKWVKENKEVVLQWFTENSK
T3 sequence (P15144 whole entry): as above
APN, sequence (P15144 whole entry, species assumed): as the sequence (P15144 whole entry) above
T2 sequence (P15144 whole entry): as above

With `CC(=O)N[C@@H](CS)C(=O)O` [NAC], in the data set with APN in HepG2 cells, the “effect on the red fluorescence of HepG2 cells” value (“effect on the red fluorescence” below) was “obvious inhibitory effect”.
As for `CC(=O)Nc1ccc(O)cc1` [APAP, acetaminophen], the “change of R value (APN level) with APAP concentration” value with APN in HepG2 cells (HepG2, APAP 500 μM and 1,000 μM, NB-APN 5 μM) is recorded as “gradual increase in the R value”. Also, at APN in liver, the “liver fluorescence (APN expression) in nude mice” value is reported as “strong fluorescence appeared in the liver”.
With `CC(S)C(=O)NCC(=O)O` (stereo not shown) [TIO], the “effect on the red fluorescence” value in the data set on APN in HepG2 cells was “obvious inhibitory effect”.
Take `CC(C)C[C@H](NC(=O)[C@@H](O)[C@H](N)Cc1ccccc1)C(=O)O` [bestatin]: at APN, the “effect on the fluorescence ratio signal I675/I610 of the NB-APN + APN system” value is “significant inhibitory effect”. Further, the “effect on intracellular fluorescence ratio R” value in data set [1] and in data set [2] was “significantly reduced” in each case. Besides, the “fluorescence signal at the tumor site compared with the group without inhibitor” value in data set [3] is listed as “significantly weaker”.
As for `N[C@@H](CCC(=O)N[C@@H](CS)C(=O)NCC(=O)O)C(=O)O` [GSH, glutathione], the “anti-hepatotoxic effect with APN as hepatotoxicity index, compared” value in the data set with APN in HepG2 cells (drug 300 μM + APAP 1,000 μM) was “better than that of NAC and Glu, but worse than that of TIO”. Besides, in the data set with APN in HepG2 cells, the “effect on the red fluorescence” value was “obvious inhibitory effect”.
